Data published in ChEMBL document CHEMBL5442219.

Assays:
Details in all cases: Compound concentration 10 µM
[1] = target: T1, Alpha-1B adrenergic receptor (Homo sapiens) (UniProt P35368)
T1 sequence (whole entry): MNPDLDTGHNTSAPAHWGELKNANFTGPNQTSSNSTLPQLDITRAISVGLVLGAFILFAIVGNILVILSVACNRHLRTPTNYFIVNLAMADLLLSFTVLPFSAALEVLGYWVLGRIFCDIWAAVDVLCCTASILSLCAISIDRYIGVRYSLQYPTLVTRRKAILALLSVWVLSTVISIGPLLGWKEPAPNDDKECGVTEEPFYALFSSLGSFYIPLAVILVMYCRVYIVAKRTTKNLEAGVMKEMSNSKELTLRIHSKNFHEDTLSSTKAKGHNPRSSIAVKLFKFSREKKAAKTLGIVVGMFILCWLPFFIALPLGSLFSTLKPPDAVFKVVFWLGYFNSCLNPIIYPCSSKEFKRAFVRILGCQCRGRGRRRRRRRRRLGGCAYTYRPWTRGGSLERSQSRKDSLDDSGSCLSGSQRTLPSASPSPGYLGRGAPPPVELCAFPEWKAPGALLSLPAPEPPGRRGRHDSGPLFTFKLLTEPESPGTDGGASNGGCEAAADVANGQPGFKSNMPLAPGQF
Description: PDSP Primary Binding target: ADRA1B - Compounds are tested at 10 uM concentration, plate are incubated at room temperature in the dark for 90 minutes. Reaction are stopped by vacuum filtration onto 0.3% polyethyleneimine soaked filter mats using Filtermate harvester. Scintilation cocktail is then melted onto microwave-dried filters on a hot plate and the radio activity is counted in Microbia counter.

[2] = target: T2, Alpha-2C adrenergic receptor (Homo sapiens) (UniProt P18825)
T2 sequence (whole entry): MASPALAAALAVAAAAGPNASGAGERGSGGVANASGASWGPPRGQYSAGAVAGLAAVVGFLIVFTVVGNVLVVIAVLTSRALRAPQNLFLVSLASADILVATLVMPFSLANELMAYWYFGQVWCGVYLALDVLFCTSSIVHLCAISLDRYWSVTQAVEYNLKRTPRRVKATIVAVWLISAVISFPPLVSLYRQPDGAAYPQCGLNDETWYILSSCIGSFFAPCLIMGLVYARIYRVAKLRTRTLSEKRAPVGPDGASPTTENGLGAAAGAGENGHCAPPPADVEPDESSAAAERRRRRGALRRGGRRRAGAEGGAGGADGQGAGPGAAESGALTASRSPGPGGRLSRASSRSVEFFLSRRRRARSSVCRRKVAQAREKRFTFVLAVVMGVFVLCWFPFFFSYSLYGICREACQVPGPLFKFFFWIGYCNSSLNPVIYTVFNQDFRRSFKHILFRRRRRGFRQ
Description: PDSP Primary Binding target: ADRA2C - Compounds are tested at 10 uM concentration, plate are incubated at room temperature in the dark for 90 minutes. Reaction are stopped by vacuum filtration onto 0.3% polyethyleneimine soaked filter mats using Filtermate harvester. Scintilation cocktail is then melted onto microwave-dried filters on a hot plate and the radio activity is counted in Microbia counter.

[3] = target: Beta-2 adrenergic receptor (Homo sapiens) (UniProt P07550)
Description: PDSP Primary Binding target: ADRB2 - Compounds are tested at 10 uM concentration, plate are incubated at room temperature in the dark for 90 minutes. Reaction are stopped by vacuum filtration onto 0.3% polyethyleneimine soaked filter mats using Filtermate harvester. Scintilation cocktail is then melted onto microwave-dried filters on a hot plate and the radio activity is counted in Microbia counter.

[4] = target: T3, Muscarinic acetylcholine receptor M1 (Homo sapiens) (UniProt P11229)
T3 sequence (whole entry): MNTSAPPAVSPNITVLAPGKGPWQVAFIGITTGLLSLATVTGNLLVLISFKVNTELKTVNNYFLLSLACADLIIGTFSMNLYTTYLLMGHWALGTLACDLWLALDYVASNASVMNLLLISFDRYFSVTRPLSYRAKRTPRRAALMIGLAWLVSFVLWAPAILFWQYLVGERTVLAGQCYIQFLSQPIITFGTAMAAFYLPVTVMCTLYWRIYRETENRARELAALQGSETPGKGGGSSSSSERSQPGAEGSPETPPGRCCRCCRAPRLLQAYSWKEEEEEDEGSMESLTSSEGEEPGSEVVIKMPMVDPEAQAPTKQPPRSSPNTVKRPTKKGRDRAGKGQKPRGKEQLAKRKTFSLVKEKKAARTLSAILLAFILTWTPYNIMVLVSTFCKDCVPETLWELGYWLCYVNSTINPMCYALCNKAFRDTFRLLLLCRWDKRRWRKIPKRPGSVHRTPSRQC
Description: PDSP Primary Binding target: CHRM1 - Compounds are tested at 10 uM concentration, plate are incubated at room temperature in the dark for 90 minutes. Reaction are stopped by vacuum filtration onto 0.3% polyethyleneimine soaked filter mats using Filtermate harvester. Scintilation cocktail is then melted onto microwave-dried filters on a hot plate and the radio activity is counted in Microbia counter.

[5] = target: T4, Muscarinic acetylcholine receptor M4 (Homo sapiens) (UniProt P08173)
T4 sequence (whole entry): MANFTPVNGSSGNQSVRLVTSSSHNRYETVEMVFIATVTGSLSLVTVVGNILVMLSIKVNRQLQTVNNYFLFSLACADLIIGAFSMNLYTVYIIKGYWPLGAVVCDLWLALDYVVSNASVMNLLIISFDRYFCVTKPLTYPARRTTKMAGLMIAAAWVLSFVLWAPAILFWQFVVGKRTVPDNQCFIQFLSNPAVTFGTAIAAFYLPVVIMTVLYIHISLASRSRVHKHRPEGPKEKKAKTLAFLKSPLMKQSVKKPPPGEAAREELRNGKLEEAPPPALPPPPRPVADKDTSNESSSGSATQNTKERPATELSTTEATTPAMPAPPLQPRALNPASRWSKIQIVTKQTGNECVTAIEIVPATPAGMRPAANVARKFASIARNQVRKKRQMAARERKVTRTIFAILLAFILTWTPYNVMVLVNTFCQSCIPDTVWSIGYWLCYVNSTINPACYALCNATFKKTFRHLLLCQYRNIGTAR
Description: PDSP Primary Binding target: CHRM4 - Compounds are tested at 10 uM concentration, plate are incubated at room temperature in the dark for 90 minutes. Reaction are stopped by vacuum filtration onto 0.3% polyethyleneimine soaked filter mats using Filtermate harvester. Scintilation cocktail is then melted onto microwave-dried filters on a hot plate and the radio activity is counted in Microbia counter.

[6] = target: D(1A) dopamine receptor (Homo sapiens) (UniProt P21728)
Description: PDSP Primary Binding target: DRD1 - Compounds are tested at 10 uM concentration, plate are incubated at room temperature in the dark for 90 minutes. Reaction are stopped by vacuum filtration onto 0.3% polyethyleneimine soaked filter mats using Filtermate harvester. Scintilation cocktail is then melted onto microwave-dried filters on a hot plate and the radio activity is counted in Microbia counter.

[7] = target: D(1B) dopamine receptor (Homo sapiens) (UniProt P21918)
Description: PDSP Primary Binding target: DRD5 - Compounds are tested at 10 uM concentration, plate are incubated at room temperature in the dark for 90 minutes. Reaction are stopped by vacuum filtration onto 0.3% polyethyleneimine soaked filter mats using Filtermate harvester. Scintilation cocktail is then melted onto microwave-dried filters on a hot plate and the radio activity is counted in Microbia counter.

[8] = target: 5-hydroxytryptamine receptor 1D (Homo sapiens) (UniProt P28221)
Description: PDSP Primary Binding target: HTR1D - Compounds are tested at 10 uM concentration, plate are incubated at room temperature in the dark for 90 minutes. Reaction are stopped by vacuum filtration onto 0.3% polyethyleneimine soaked filter mats using Filtermate harvester. Scintilation cocktail is then melted onto microwave-dried filters on a hot plate and the radio activity is counted in Microbia counter.

[9] = target: 5-hydroxytryptamine receptor 2A (Homo sapiens) (UniProt P28223)
Description: PDSP Primary Binding target: HTR2A - Compounds are tested at 10 uM concentration, plate are incubated at room temperature in the dark for 90 minutes. Reaction are stopped by vacuum filtration onto 0.3% polyethyleneimine soaked filter mats using Filtermate harvester. Scintilation cocktail is then melted onto microwave-dried filters on a hot plate and the radio activity is counted in Microbia counter.

[10] = target: 5-hydroxytryptamine receptor 6 (Homo sapiens) (UniProt P50406)
Description: PDSP Primary Binding target: HTR6 - Compounds are tested at 10 uM concentration, plate are incubated at room temperature in the dark for 90 minutes. Reaction are stopped by vacuum filtration onto 0.3% polyethyleneimine soaked filter mats using Filtermate harvester. Scintilation cocktail is then melted onto microwave-dried filters on a hot plate and the radio activity is counted in Microbia counter.

[11] = target: 5-hydroxytryptamine receptor 7 (Homo sapiens) (UniProt P34969)
Description: PDSP Primary Binding target: HTR7 - Compounds are tested at 10 uM concentration, plate are incubated at room temperature in the dark for 90 minutes. Reaction are stopped by vacuum filtration onto 0.3% polyethyleneimine soaked filter mats using Filtermate harvester. Scintilation cocktail is then melted onto microwave-dried filters on a hot plate and the radio activity is counted in Microbia counter.

[12] = target: Delta-type opioid receptor (Homo sapiens) (UniProt P41143)
Description: PDSP Primary Binding target: OPRD1 - Compounds are tested at 10 uM concentration, plate are incubated at room temperature in the dark for 90 minutes. Reaction are stopped by vacuum filtration onto 0.3% polyethyleneimine soaked filter mats using Filtermate harvester. Scintilation cocktail is then melted onto microwave-dried filters on a hot plate and the radio activity is counted in Microbia counter.

[13] = target: Mu-type opioid receptor (Homo sapiens) (UniProt P35372)
Description: PDSP Primary Binding target: OPRM1 - Compounds are tested at 10 uM concentration, plate are incubated at room temperature in the dark for 90 minutes. Reaction are stopped by vacuum filtration onto 0.3% polyethyleneimine soaked filter mats using Filtermate harvester. Scintilation cocktail is then melted onto microwave-dried filters on a hot plate and the radio activity is counted in Microbia counter.

[14] = target: Sodium-dependent noradrenaline transporter (Homo sapiens) (UniProt P23975)
Description: PDSP Primary Binding target: SLC6A2 - Compounds are tested at 10 uM concentration, plate are incubated at room temperature in the dark for 90 minutes. Reaction are stopped by vacuum filtration onto 0.3% polyethyleneimine soaked filter mats using Filtermate harvester. Scintilation cocktail is then melted onto microwave-dried filters on a hot plate and the radio activity is counted in Microbia counter.

[15] = target: Sodium-dependent dopamine transporter (Homo sapiens) (UniProt Q01959)
Description: PDSP Primary Binding target: SLC6A3 - Compounds are tested at 10 uM concentration, plate are incubated at room temperature in the dark for 90 minutes. Reaction are stopped by vacuum filtration onto 0.3% polyethyleneimine soaked filter mats using Filtermate harvester. Scintilation cocktail is then melted onto microwave-dried filters on a hot plate and the radio activity is counted in Microbia counter.

[16] = target: Sigma intracellular receptor 2 (Homo sapiens) (UniProt Q5BJF2)
Description: PDSP Primary Binding target: TMEM97 - Compounds are tested at 10 uM concentration, plate are incubated at room temperature in the dark for 90 minutes. Reaction are stopped by vacuum filtration onto 0.3% polyethyleneimine soaked filter mats using Filtermate harvester. Scintilation cocktail is then melted onto microwave-dried filters on a hot plate and the radio activity is counted in Microbia counter.

[17] = target: Beta-3 adrenergic receptor (Homo sapiens) (UniProt P13945)
Description: PDSP Primary Binding target: ADRB3 - Compounds are tested at 10 uM concentration, plate are incubated at room temperature in the dark for 90 minutes. Reaction are stopped by vacuum filtration onto 0.3% polyethyleneimine soaked filter mats using Filtermate harvester. Scintilation cocktail is then melted onto microwave-dried filters on a hot plate and the radio activity is counted in Microbia counter.

[18] = target: Histamine H2 receptor (Homo sapiens) (UniProt P25021)
Description: PDSP Primary Binding target: HRH2 - Compounds are tested at 10 uM concentration, plate are incubated at room temperature in the dark for 90 minutes. Reaction are stopped by vacuum filtration onto 0.3% polyethyleneimine soaked filter mats using Filtermate harvester. Scintilation cocktail is then melted onto microwave-dried filters on a hot plate and the radio activity is counted in Microbia counter.

[19] = target: Beta-1 adrenergic receptor (Homo sapiens) (UniProt P08588)
Sequence of Beta-1 adrenergic receptor (Homo sapiens) (P08588 whole entry, looked up): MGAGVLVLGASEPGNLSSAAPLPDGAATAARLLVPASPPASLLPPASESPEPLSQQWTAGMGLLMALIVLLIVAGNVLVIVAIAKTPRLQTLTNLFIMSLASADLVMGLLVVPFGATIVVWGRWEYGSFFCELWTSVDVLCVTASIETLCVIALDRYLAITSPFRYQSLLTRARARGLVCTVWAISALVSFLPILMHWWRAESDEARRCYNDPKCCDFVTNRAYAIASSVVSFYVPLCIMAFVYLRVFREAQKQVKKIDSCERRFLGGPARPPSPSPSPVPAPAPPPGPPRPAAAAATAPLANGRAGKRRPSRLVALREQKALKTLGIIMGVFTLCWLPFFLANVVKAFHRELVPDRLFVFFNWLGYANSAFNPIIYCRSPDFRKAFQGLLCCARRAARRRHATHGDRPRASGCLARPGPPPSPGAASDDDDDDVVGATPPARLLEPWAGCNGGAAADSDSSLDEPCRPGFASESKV
Description: PDSP Primary Binding target: ADRB1 - Compounds are tested at 10 uM concentration, plate are incubated at room temperature in the dark for 90 minutes. Reaction are stopped by vacuum filtration onto 0.3% polyethyleneimine soaked filter mats using Filtermate harvester. Scintilation cocktail is then melted onto microwave-dried filters on a hot plate and the radio activity is counted in Microbia counter.

Sequence of Sodium-dependent noradrenaline transporter (Homo sapiens) (P23975 whole entry): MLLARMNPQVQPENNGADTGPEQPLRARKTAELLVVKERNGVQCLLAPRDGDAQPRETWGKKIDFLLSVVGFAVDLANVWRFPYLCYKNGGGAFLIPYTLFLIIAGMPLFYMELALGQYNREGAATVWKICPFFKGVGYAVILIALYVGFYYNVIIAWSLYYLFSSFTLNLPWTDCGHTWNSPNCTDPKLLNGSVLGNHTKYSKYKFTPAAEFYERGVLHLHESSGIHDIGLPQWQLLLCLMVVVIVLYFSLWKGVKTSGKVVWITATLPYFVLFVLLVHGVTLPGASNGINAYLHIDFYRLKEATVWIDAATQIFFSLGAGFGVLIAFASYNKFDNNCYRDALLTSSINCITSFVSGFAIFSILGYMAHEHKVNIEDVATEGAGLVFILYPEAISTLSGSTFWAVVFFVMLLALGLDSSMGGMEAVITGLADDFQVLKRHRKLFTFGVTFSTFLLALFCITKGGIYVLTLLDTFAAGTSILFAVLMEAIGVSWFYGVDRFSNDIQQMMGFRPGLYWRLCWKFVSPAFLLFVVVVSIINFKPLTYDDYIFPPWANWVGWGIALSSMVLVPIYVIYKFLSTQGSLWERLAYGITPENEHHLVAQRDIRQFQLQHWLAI
Sequence of Histamine H2 receptor (Homo sapiens) (P25021 whole entry): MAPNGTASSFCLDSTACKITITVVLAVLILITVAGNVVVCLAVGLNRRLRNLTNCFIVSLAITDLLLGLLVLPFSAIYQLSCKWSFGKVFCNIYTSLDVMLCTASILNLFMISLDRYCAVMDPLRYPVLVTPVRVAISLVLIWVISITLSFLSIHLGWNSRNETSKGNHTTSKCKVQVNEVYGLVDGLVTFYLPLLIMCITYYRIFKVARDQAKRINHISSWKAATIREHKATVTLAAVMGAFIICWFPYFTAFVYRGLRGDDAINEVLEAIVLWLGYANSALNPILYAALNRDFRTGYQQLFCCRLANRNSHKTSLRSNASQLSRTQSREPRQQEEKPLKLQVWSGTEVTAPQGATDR
Sequence of Beta-3 adrenergic receptor (Homo sapiens) (P13945 whole entry, looked up): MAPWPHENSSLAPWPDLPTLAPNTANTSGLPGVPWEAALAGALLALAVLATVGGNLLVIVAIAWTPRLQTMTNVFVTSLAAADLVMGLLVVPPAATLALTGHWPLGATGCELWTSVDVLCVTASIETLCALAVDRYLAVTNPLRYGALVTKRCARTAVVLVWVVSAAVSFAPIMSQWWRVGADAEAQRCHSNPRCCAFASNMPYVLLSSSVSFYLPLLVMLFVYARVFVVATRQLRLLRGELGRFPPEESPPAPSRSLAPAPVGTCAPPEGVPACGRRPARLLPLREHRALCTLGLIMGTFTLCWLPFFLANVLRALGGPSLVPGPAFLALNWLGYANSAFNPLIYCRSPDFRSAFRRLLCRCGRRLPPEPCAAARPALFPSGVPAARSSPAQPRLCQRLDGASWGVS
Sequence of Mu-type opioid receptor (Homo sapiens) (P35372 whole entry): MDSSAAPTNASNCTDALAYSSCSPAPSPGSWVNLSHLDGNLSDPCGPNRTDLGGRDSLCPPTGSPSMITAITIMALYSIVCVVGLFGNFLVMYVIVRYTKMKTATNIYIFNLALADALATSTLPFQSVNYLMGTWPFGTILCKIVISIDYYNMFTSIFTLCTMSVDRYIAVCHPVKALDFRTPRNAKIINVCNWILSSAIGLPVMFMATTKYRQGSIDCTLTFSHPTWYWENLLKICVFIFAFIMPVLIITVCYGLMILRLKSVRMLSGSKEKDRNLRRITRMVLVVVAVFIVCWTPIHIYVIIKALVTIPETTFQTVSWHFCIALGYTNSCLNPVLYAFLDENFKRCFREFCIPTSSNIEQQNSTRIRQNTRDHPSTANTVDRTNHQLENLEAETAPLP
Sequence of Sodium-dependent dopamine transporter (Homo sapiens) (Q01959 whole entry): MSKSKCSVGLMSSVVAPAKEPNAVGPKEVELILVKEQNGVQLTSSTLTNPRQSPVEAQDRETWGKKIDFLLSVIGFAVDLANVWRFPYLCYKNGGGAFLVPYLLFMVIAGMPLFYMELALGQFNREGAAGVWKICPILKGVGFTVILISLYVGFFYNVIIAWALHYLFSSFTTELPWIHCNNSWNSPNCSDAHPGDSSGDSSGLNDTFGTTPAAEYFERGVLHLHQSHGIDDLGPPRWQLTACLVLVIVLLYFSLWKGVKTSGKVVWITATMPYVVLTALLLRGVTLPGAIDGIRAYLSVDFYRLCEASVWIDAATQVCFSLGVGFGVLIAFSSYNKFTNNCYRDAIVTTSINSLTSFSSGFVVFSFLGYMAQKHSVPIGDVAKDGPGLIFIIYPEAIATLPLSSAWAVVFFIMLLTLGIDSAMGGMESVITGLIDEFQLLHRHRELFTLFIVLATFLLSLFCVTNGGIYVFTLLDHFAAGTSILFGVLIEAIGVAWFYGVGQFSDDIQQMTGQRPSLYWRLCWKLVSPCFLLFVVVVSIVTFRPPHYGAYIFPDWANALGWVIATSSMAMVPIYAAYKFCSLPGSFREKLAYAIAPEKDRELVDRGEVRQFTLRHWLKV
Sequence of D(1A) dopamine receptor (Homo sapiens) (P21728 whole entry): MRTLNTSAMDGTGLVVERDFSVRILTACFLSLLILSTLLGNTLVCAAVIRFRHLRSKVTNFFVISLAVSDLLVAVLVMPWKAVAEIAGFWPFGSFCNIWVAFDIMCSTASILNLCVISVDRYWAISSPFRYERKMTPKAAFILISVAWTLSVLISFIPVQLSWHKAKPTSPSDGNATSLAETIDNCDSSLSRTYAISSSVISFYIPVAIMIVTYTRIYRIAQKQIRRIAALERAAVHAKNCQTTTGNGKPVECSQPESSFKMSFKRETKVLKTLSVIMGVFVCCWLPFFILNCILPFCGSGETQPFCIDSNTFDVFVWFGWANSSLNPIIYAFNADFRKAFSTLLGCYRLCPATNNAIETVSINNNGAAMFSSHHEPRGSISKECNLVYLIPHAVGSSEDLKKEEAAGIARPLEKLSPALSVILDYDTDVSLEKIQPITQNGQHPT
Sequence of 5-hydroxytryptamine receptor 2A (Homo sapiens) (P28223 whole entry): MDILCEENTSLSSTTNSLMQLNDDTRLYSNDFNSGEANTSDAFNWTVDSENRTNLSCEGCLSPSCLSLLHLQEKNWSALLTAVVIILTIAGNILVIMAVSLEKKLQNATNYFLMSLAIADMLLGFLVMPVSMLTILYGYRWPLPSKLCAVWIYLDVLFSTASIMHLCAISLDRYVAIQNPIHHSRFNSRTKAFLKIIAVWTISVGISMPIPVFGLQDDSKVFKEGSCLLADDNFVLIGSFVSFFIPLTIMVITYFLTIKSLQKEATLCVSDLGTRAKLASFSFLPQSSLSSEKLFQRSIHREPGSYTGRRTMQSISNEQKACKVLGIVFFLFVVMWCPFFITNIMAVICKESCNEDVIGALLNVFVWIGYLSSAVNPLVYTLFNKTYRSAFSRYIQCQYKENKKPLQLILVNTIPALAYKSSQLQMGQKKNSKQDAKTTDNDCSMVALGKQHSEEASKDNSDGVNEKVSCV
Sequence of Sigma intracellular receptor 2 (Homo sapiens) (Q5BJF2 whole entry): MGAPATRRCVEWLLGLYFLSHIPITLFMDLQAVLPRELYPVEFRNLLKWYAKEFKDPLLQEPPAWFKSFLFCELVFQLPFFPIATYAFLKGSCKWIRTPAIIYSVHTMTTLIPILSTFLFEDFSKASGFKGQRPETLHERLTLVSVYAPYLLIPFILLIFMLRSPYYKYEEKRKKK
Sequence of D(1B) dopamine receptor (Homo sapiens) (P21918 whole entry): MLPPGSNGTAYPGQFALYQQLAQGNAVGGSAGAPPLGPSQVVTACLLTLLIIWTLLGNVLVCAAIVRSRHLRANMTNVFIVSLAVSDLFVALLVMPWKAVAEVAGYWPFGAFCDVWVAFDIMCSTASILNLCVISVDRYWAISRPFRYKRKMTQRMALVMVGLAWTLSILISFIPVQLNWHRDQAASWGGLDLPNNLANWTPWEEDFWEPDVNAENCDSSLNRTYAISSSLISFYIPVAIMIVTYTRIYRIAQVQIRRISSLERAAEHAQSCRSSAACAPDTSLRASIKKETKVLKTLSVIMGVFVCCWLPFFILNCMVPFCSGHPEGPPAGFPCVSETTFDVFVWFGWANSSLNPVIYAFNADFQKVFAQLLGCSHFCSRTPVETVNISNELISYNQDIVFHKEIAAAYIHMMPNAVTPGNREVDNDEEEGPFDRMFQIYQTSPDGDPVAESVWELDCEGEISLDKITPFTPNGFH
Sequence of 5-hydroxytryptamine receptor 6 (Homo sapiens) (P50406 whole entry): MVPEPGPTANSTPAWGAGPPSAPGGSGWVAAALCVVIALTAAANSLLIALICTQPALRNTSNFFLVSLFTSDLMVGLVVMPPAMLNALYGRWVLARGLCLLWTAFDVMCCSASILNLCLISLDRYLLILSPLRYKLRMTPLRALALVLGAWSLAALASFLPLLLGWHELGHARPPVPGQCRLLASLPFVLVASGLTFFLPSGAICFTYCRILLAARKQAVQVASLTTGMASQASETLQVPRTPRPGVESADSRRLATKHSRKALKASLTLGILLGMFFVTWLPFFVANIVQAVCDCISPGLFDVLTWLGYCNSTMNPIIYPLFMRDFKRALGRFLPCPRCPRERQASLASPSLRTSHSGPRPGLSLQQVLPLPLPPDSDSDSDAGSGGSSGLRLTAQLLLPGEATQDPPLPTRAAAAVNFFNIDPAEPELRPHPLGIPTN

SMILES	inhibition [1]	inhibition [2]	inhibition [3]	inhibition [4]	inhibition [5]	inhibition [6]	inhibition [7]	inhibition [8]	inhibition [9]	inhibition [10]	inhibition [11]	inhibition [12]	inhibition [13]	inhibition [14]	inhibition [15]	inhibition [16]	inhibition [17]	inhibition [18]	inhibition [19]
COc1cc(-n2cnc3cc(-c4ccc(Cl)cc4)sc3c2=O)ccc1OCCN1CCCC1	27.2%	71.9%	17.8%	84.1%	73.8%	11.7%	27.2%	56.6%	32.9%	-7.71%	16.4%	28.9%	37.9%	80.4%	66.4%	94.7%	43.7%	18.7%	–
CCCCN(CC)c1nc(C)nc2c1c(C)cn2-c1c(C)cc(C)cc1C	14.4%	-1.9%	-7.68%	–	–	19.2%	-2.04%	-0.49%	9.7%	–	–	7.66%	20.1%	-0.04%	36%	78.3%	41.7%	20.9%	37.8%
CCOC(=O)c1c(C)[nH]c2ccc3c(c12)CN1CCc2cc(OC)ccc2C1O3 (stereo not drawn)	27.5%	95%	23.2%	11.9%	92.3%	1.81%	–	14.9%	28.7%	10.8%	9.23%	-2.17%	56.5%	51%	82.9%	36.3%	6.3%	57.5%	–
COc1ccc(S(=O)(=O)N2c3ccc(Cl)cc3[C@](O)(c3ccccc3Cl)[C@@H]2C(=O)N2CCC[C@H]2C(N)=O)cc1OC	2.62%	-3.82%	6.53%	–	–	–	–	6.02%	-2.13%	-1.14%	–	19%	38.8%	2.92%	42.4%	–	31.7%	15.4%	28.5%
CC(C)C[C@H](NC(=O)N1CCCCCC1)C(=O)N[C@H](Cc1cn(C)c2ccccc12)C(=O)N[C@H](Cc1ccccn1)C(=O)O	10.1%	0.48%	-6.68%	0.87%	0.19%	–	-0.58%	–	-0.06%	–	–	–	16.7%	–	-1.54%	9.3%	-0.31%	18%	-0.82%
Cc1c(OCc2cccc(-c3ccc(C(=O)O)cc3)c2)cc2c(c1C)C(=O)C(C1CCCC1)C2 (stereo not drawn)	63.1%	–	-5.2%	-9.01%	–	-5.51%	–	0.61%	6.01%	-3.02%	–	-8.42%	–	–	–	-3.24%	76.5%	25.4%	-9.82%
CCc1cc(C(C)=O)c(O)cc1OCCCCCC(C)(C)c1nn[nH]n1	-3.95%	12%	–	–	-4.28%	1.9%	–	–	12.7%	8.17%	–	–	8.2%	–	32.8%	–	0.68%	6.38%	18.3%
C[C@@H](NCCc1ccc(O)cc1)[C@@H](O)c1ccc(O)cc1 (relative stereo)	21.4%	23.6%	36.5%	24.4%	33%	-9.44%	–	–	5.36%	–	–	17.5%	51.1%	51.8%	39.6%	58.1%	56.6%	8.2%	13.4%
Cc1csc2c(N[C@@H](C)CN3CCN(S(=O)(=O)c4ccc(Cl)c(Cl)c4)CC3)ncnc12	7.3%	14.6%	1.66%	6.35%	–	-2.84%	5.96%	–	31%	12.8%	–	4.01%	14.7%	-2.51%	–	73.2%	60.6%	45.2%	26.2%
CC(C)(N)C(=O)N[C@H](COCc1ccccc1)C(=O)N1CCC2(CC1)CN(S(C)(=O)=O)c1ccccc12	11.4%	3.03%	-3.52%	–	–	–	-1.48%	30.2%	6.83%	5.9%	–	3.11%	12.8%	-2.84%	39.5%	21.1%	15.2%	5.6%	30.4%
CCCCCNC(=N)N/N=C/c1c[nH]c2ccc(OC)cc12	62.5%	94.1%	54.7%	19.6%	0.53%	47.1%	54.4%	76.3%	93.7%	89%	93.6%	12.6%	63.9%	–	69.1%	94.2%	89.7%	23.9%	–
C[C@@H](NCCCc1cccc(C(F)(F)F)c1)c1cccc2ccccc12	53.8%	77.9%	9.84%	17.6%	-2.86%	8.33%	-9.65%	61.5%	80.6%	69.1%	51.6%	–	78.3%	60.8%	70.4%	95.5%	48%	62.1%	–
